Laboratory results published in article PMC8151848, “Tambjamines and Prodiginines: Biocidal Activity against Trypanosoma cruzi” (Pharmaceutics, 2021).
Values after ≈ are worked out from the molar mass of the structure shown. Like-named read-outs stand apart in the source and are kept apart here.

Experiments:
[1] = test system: murine L-929 fibroblasts (NCTC clone 929); assay: Cytotoxicity assay (resazurin) in L-929 fibroblasts; format: cell-based, mouse; settings: Mus musculus, L929; read-out: IC50 (µM) L-929 cell growth inhibition
Excerpt: (§1) Mouse L-929 fibroblasts (NCTC clone 929, ECACC 88102702) were used for both drug toxicity and infection assays. Cell line was obtained from Dr. Concepció Soler, Dept. Pathology & Experimental therapeutics, Faculty of Medicine and Health Sciences, University of Barcelona, Spain. Human hepatocarcinoma Hep G2 cells (American Type Culture Collection (ATCC HB-8065)) were employed only in the drug toxicity assays and were obtained from Dr. Neus Agell, Cell Biology Research Group, Faculty of Medicine and Health Sciences, University of Barcelona, Spain.
(§2) Cells were seeded by trypsinization in 96-well microplates (L-929: 4 × 10^3 cells/well; Hep G2: 1.5 × 10^4 cells/well) and incubated for 24 h at 37 °C to allow cell attachment. On the following day, the medium was discarded and replaced with a fresh medium containing the different concentrations of the drugs. Hep G2 cells were treated with concentrations of 100, 10, and 1 µM of the different drugs, while L-929 cells were treated with a wider range of concentrations in order to calculate the IC50 value (the drug concentration that inhibits 50% of cell growth). Medium, growth, and drug blanks were used in each test as controls. Plates were incubated again for another 24 h. After treatment, 20 µL of resazurin diluted in 1X phosphate-buffered saline (PBS; Sigma Aldrich) was added at a final concentration of 70 µM. The plates were incubated for another 24 h, after which fluorescence was measured in a microplate reader (FLUOstar OPTIMA, BMG LABTECH GmbH, Ortenberg, Germany) at an excitation wavelength of 530 nm and an emission wavelength of 590 nm. Each concentration was tested in triplicate and the experiments were repeated three times independently. Results indicated the percentage of toxicity (% T value). (3) % Toxicity=100−(AE−AEB)/(AC−ACB)×100 where AE is the absorbance of the experimental group, AEB the absorbance of the drug blank, AC the absorbance of the untreated cells, and ACB the absorbance of the culture medium blank. For the L-929 fibroblasts, the IC50 values (the drug concentration that inhibits 50% of cell growth) were calculated for each compound using the GraphPad Prism software.

[2] = as above; format: cell-based, mouse; settings: mouse, L-929 fibroblasts (NCTC clone 929); L-929, 16 µM, n = 9; read-out: % Cytotoxicity ± SD
Excerpt: as §1, §2

[3] = test system: epimastigotes of T. cruzi (CL strain, clone B5); assay: Epimastigote susceptibility assay (monotherapy); format: cell-based, Trypanosoma cruzi; settings: for IC50: Trypanosoma cruzi, CLB strain, 72 h at 28 °C, mean ± SD, read-out: IC50 (µM) in epimastigotes of T. cruzi; for activity against the extracellular and replicative forms of T. cruzi (in words): epimastigotes
Method: The CL-B5 strain was stably transfected with the Escherichia coli β-galactosidase gene (lacZ) and routinely maintained in exponential growth by weekly passages. Trypomastigotes of the CL-B5 strain were obtained as previously reported.
The screening assays were performed in 96-well microplates (WWR Int LLC) containing serially diluted concentrations of each compound and seeded with 2.5 × 10^5 epimastigotes/mL harvested during the exponential growth phase. Growth, medium, and drug blanks were used in each assay as controls. An internal control of the reference drug, benznidazole, was also included. After 72 h at 28 °C, 50 µL of the substrate chlorophenol red-β-D-galactopyranoside (CPRG; Roche) diluted in 0.9% Triton X-100 solution (EMD, Darmstadt, Germany) were added at a final concentration of 200 µM. Then, after 3 h at 37 °C, measurements were performed in a scanning multiwell spectrophotometer (ELISA Multiskan Reader, BioTek Instruments, Inc., Winooski, VT, USA) at 595 nm. Each concentration was tested in triplicate and the experiments were performed three times independently. The efficacy of the compounds was calculated by determining the percentage of epimastigote growth (% EG value) as follows:(1) % Epimastigote growth=(AE−AEB)/(AC−ACB)×100 where AE is the absorbance of the experimental group, AEB the absorbance of the drug blank, AC the absorbance of the control group, and ACB the absorbance of the culture medium blank. The IC50 values (the drug concentration that eliminates 50% of the parasites) were determined for each compound using the GraphPad Prism software (Version 5.0.0 for Windows, GraphPad Software, San Diego, CA, USA).

[4] = POPC vesicles, ref 2 (Gianotti et al., Int. J. Mol. Sci., 2020), cited from earlier work
[5] = test system: epimastigotes of T. cruzi (CL strain, clone B5); design: method as in PMID 31210760; settings: read-out: IC50 against epimastigotes of T. cruzi (earlier study); cited from earlier work
Enterococcus faecalis = settings: cited from earlier work
Pseudomonas aeruginosa = settings: cited from earlier work
Escherichia coli = settings: cited from earlier work
[6] = Transmembrane anion transport (chloride efflux) in POPC vesicles; settings: for anionophore activity (in words): chloride efflux
Method: The transmembrane anion transport activity of the compounds was explored in phospholipid (1-palmitoyl-2-oleoyl-sn-glycero-3-phosphocholine (POPC)) vesicles. Chloride efflux from chloride loaded vesicles was monitored using a chloride selective electrode. A solution of the studied compound in DMSO, usually 5 µL to avoid the influence of the organic solvent during the experiments, was added, and once the experiment was finished, a surfactant (Triton-X, 10% dispersion in water, 20 µL) was used to lyse the vesicles and release all the encapsulated chloride. This value was taken as 100% release and used as such. The experiments were repeated using different concentrations of the studied compounds and normalized chloride efflux at […] against the concentration of compound plotted. The data were then fitted with the Hill equation and an EC50 parameter, representing the concentration of compound eliciting 50% of chloride release was calculated. Assays in which the external medium was nitrate or bicarbonate were performed.

different parasites = test system: different parasites; design: method as in PMID 32196500; settings: cited from earlier work
Plasmodium yoelii = test system: Plasmodium yoelii; design: method as in PMID 26305125; settings: murine model; cited from earlier work
[7] = external bicarbonate, read-out: EC50 (µM) HCO3–/Cl–
[8] = external nitrate, read-out: EC50 (µM) NO3–/Cl–

Q: Which results are given for `CCCCn1cc(-c2cc(OC)c(/C=C3\N=C(C)C=C3C)[nH]2)nn1` [EH123]?
A: IC50 [1]: 171.7 ± 0.5 µM; cytotoxicity at 24 h, 16 µM [2]: 3.72 ± 1.14%; Selectivity index (SI), Epimastigotes ([3]; IC50 for L-929 fibroblasts / IC50 for T. cruzi epimastigotes): 0.86; IC50 [3]: 199 ± 49.9 µM; activity against the extracellular and replicative forms of T. cruzi (in words) [3]: did not show detectable levels of trypanocidal activity; EC50 [4, 7]: 1.91 µM; EC50 [4, 8]: 0.024 µM

Q: Which IC50 [5] does the source give for `CCCCCC1=C/C(=C/c2[nH]c(-c3ccc[nH]3)cc2OC)N=C1C` [Prodigiosin, prodigiosin] here?
A: ≤ 800 nM

Q: What about the “minimal inhibitory concentration (MIC)” value (Enterococcus faecalis) of the same compound?
A: 2 µM (≈ 0.647 µg/mL)

Q: And the “minimal inhibitory concentration (MIC)” value (Pseudomonas aeruginosa)?
A: 8 µM (≈ 2.59 µg/mL)

Q: What about the “minimal inhibitory concentration (MIC)” value (Escherichia coli) of the same compound?
A: 2 µM (≈ 0.647 µg/mL)

Q: What about the “anionophore activity (in words)” value [6] of the same compound?
A: most active anionophore

Q: And the EC50 [6, 7]?
A: 0.06 µM

Q: What about the EC50 [6, 8] of the same compound?
A: 0.002 µM

Q: For `CC1(C)CCC(c2ccc(Cl)cc2)=C(CN2CCN(c3ccc(C(=O)NS(=O)(=O)c4ccc(N[C@H](CCN5CCOCC5)CSc5ccccc5)c(S(=O)(=O)C(F)(F)F)c4)cc3)CC2)C1` [navitoclax], which “effect on the viability of different parasites (in words)” value (different parasites) is on record?
A: do not have an effect

Q: Which IC50 [3] does the source give for `CC/N=C/c1[nH]c(-c2ccc[nH]2)c(CC)c1C` [MM5] here?
A: 130 ± 34.7 µM

Q: What about the “activity against the extracellular and replicative forms of T. cruzi (in words)” value [3] of the same compound?
A: did not show detectable levels of trypanocidal activity

Q: What about the “anionophore activity (in words)” value [6] of the same compound?
A: very limited activity

Q: What about the “EC50 (µM) HCO3–/Cl–” value ([6]; external bicarbonate) of the same compound?
A: not active enough to calculate EC50 value

Q: What about the “EC50 (µM) NO3–/Cl–” value ([6]; external nitrate) of the same compound?
A: not active enough to calculate EC50 value

Q: For `CC1(C)CCC(CN2CCN(c3ccc(C(=O)NS(=O)(=O)c4ccc(NCC5CCOCC5)c([N+](=O)[O-])c4)c(Oc4cnc5[nH]ccc5c4)c3)CC2)=C(c2ccc(Cl)cc2)C1` [venetoclax], which “effect on the viability of different parasites (in words)” value (different parasites) is on record?
A: do not have an effect

Q: With `Cc1c(-c2c(-c3ccc(F)o3)sc3ncnc(O[C@H](Cc4ccccc4OCc4ccnn4CC(F)(F)F)C(=O)O)c23)ccc(OCCN2CCN(C)CC2)c1Cl` [Compound S63845] as the compound, how does the “effect on the viability of different parasites (in words)” value (different parasites) read?
A: do not have an effect

Q: Which “effect on the viability of different parasites (in words)” value (different parasites) does the source give for `Cc1nn(C)c(COc2ccc(N3CCN(S(=O)(=O)N(C)C)CC3)cc2)c1-c1cccc2c(CCCOc3cccc4ccccc34)c(C(=O)O)n(CCN3CCOCC3)c12` [Compound A-1210477] here?
A: do not have an effect

Q: Which “in vivo activity against P. yoelii infection (in words)” value (Plasmodium yoelii) does the source give for `CCc1c(-c2ccc[nH]2)[nH]c(C=NC2CCCCCC2)c1C` [KAR425] here?
A: potent in vivo activity

Q: With `Cc1c(-c2ccc(N3CCc4cccc(C(=O)Nc5nc6ccccc6s5)c4C3)nc2C(=O)O)cnn1CC12CC3CC(CC(C3)C1)C2` [Compound A-1331852] as the compound, how does the “effect on the viability of different parasites (in words)” value (different parasites) read?
A: do not have an effect
